The supplement of paper PMC11451515

System: SEM cells
Assay: cell viability relative to DMSO control; higher = less cytotoxic
Details: 48 h
Method in brief: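 NOMO1, SEM and P12-Ichikawa leukemia cells spent at least four passages adapting to each medium before use. They were seeded at 500 cells/well (NOMO1, SEM) or 1000 cells/well (P12-Ichikawa) in 5 μl in 1536-well plates and pin-dosed with library compounds in DMSO at 11 threefold steps from 47 μM down to 0.79 nM. After 48 h at 37°C, CellTiter-Glo One luminescence was read. Viability is reported as a percentage of the DMSO wells on each plate, with cell-free wells as background.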

[1] = HPLM + 10% dialyzed FBS, 0.000781 µM
[2] = HPLM + 10% dialyzed FBS, 0.00234 µM
[3] = HPLM + 10% dialyzed FBS, 0.00702 µM
[4] = HPLM + 10% dialyzed FBS, 0.0211 µM
[5] = HPLM + 10% dialyzed FBS, 0.0632 µM
[6] = HPLM + 10% dialyzed FBS, 0.19 µM
[7] = HPLM + 10% dialyzed FBS, 0.569 µM
[8] = HPLM + 10% dialyzed FBS, 1.71 µM
[9] = HPLM + 10% dialyzed FBS, 5.12 µM
[10] = HPLM + 10% dialyzed FBS, 15.4 µM
[11] = HPLM + 10% dialyzed FBS, 46.1 µM
[12] = RPMI 5 mM glucose + 10% FBS, 0.000781 µM
[13] = RPMI 5 mM glucose + 10% FBS, 0.00234 µM
[14] = RPMI 5 mM glucose + 10% FBS, 0.00702 µM
[15] = RPMI 5 mM glucose + 10% FBS, 0.0211 µM
[16] = RPMI 5 mM glucose + 10% FBS, 0.0632 µM
[17] = RPMI 5 mM glucose + 10% FBS, 0.19 µM
[18] = RPMI 5 mM glucose + 10% FBS, 0.569 µM
[19] = RPMI 5 mM glucose + 10% FBS, 1.71 µM
[20] = RPMI 5 mM glucose + 10% FBS, 5.12 µM
[21] = RPMI 5 mM glucose + 10% FBS, 15.4 µM
[22] = RPMI 5 mM glucose + 10% FBS, 46.1 µM
[23] = RPMI 5 mM glucose + 10% dialyzed FBS, 0.000781 µM
[24] = RPMI 5 mM glucose + 10% dialyzed FBS, 0.00234 µM
[25] = RPMI 5 mM glucose + 10% dialyzed FBS, 0.00702 µM
[26] = RPMI 5 mM glucose + 10% dialyzed FBS, 0.0211 µM
[27] = RPMI 5 mM glucose + 10% dialyzed FBS, 0.0632 µM
[28] = RPMI 5 mM glucose + 10% dialyzed FBS, 0.19 µM
[29] = RPMI 5 mM glucose + 10% dialyzed FBS, 0.569 µM
[30] = RPMI 5 mM glucose + 10% dialyzed FBS, 1.71 µM
[31] = RPMI 5 mM glucose + 10% dialyzed FBS, 5.12 µM
[32] = RPMI 5 mM glucose + 10% dialyzed FBS, 15.4 µM
[33] = RPMI 5 mM glucose + 10% dialyzed FBS, 46.1 µM

Row | Structure (SMILES) | cell viability [1] [%] | cell viability [2] [%] | cell viability [3] [%] | cell viability [4] [%] | cell viability [5] [%] | cell viability [6] [%] | cell viability [7] [%] | cell viability [8] [%] | cell viability [9] [%] | cell viability [10] [%] | cell viability [11] [%] | cell viability [12] [%] | cell viability [13] [%] | cell viability [14] [%] | cell viability [15] [%] | cell viability [16] [%] | cell viability [17] [%] | cell viability [18] [%] | cell viability [19] [%] | cell viability [20] [%] | cell viability [21] [%] | cell viability [22] [%] | cell viability [23] [%] | cell viability [24] [%] | cell viability [25] [%] | cell viability [26] [%] | cell viability [27] [%] | cell viability [28] [%] | cell viability [29] [%] | cell viability [30] [%] | cell viability [31] [%] | cell viability [32] [%] | cell viability [33] [%]
1 | NC(=O)c1nnn(Cc2cc(Cl)c(C(=O)c3ccc(Cl)cc3)c(Cl)c2)c1N | 112 | 116 | 125 | 107 | 127 | 128 | 135 | 116 | 111 | 124 | 89.4 | 115 | 133 | 117 | 114 | 112 | 127 | 120 | 110 | 107 | 106 | 67.6 | 88.6 | 113 | 89.8 | 90.5 | 116 | 95.1 | 99.7 | 101 | 107 | 97.6 | 48.6
2 | CCC[C@H](Nc1nc(-c2ccc(NC(=O)NCC)c(OC)c2)ncc1C)c1cccnc1 | 87.7 | 108 | 94 | 112 | 27.2 | 28.4 | 26.7 | 19.4 | 12.9 | 13.1 | 10.7 | 4.71 | 78.8 | 84.3 | 114 | 16.5 | 21 | 17.2 | 10.4 | 6.57 | 6.69 | 3.95 | 102 | 105 | 87.1 | 134 | 23.6 | 23.7 | 24.9 | 10.9 | 7.58 | 7.31 | 4.35
3 | OC1=C(Cl)C=C(N\C2=C(\C(=O)NC2=O)C3=C(C=CC=C3)[N+]([O-])=O)C=C1 | 78.4 | 92.9 | 105 | 96.9 | 93 | 102 | 98 | 115 | 86.9 | 56.3 | 6 | 103 | 109 | 106 | 123 | 109 | 120 | 104 | 104 | 93.6 | 60.8 | 25.2 | 94.7 | 99.1 | 98.2 | 99.4 | 113 | 98.9 | 116 | 110 | 88.2 | 62.8 | 27.2
4 | CC1=CC/2=C(C=C1C)N(C[C@@H](O)[C@@H](O)[C@@H](O)CO)C/3=N/C(=O)NC(=O)C3=N2 | 117 | 122 | 126 | 118 | 113 | 117 | 129 | 116 | 115 | 127 | 105 | 85.8 | 98.8 | 86.8 | 98.6 | 93.3 | 97.8 | 92.3 | 77.9 | 77.5 | 90.3 | 85.5 | 110 | 127 | 107 | 106 | 110 | 107 | 118 | 113 | 117 | 129 | 102
5 | COc1ccc(-n2c(C)c([N+](=O)[O-])c3ccc(O)cc32)cc1 | – | – | – | – | – | – | – | – | – | – | – | 102 | 103 | 111 | 107 | 120 | 109 | 108 | 122 | 127 | 121 | 98.5 | – | – | – | – | – | – | – | – | – | – | –
6 | Clc1ccc(C(c2ccccc2Cl)C(Cl)Cl)cc1 (stereo unspecified) | 119 | 116 | 120 | 121 | 139 | 36.1 | 117 | 126 | 33.2 | 109 | 85.9 | 116 | 121 | 111 | 110 | 112 | 36.7 | 137 | 106 | 12.6 | 97.6 | 75.1 | – | – | – | – | – | – | – | – | – | – | –
7 | Cc1cc(/C=c2/sc3nc4ccccc4n3c2=O)c(C)n1-c1ccccc1 | 115 | 121 | 93.5 | 122 | 112 | 128 | 125 | 108 | 128 | 110 | 101 | 117 | 119 | 113 | 137 | 117 | 122 | 130 | 128 | 125 | 125 | 118 | 117 | 110 | 99.1 | 121 | 128 | 122 | 108 | 118 | 111 | 113 | 116
8 | CCN1\C=C(C(O)=O)/C(=O)C2=C1C(=C(N3CCNC(C)C3)C(=C2)F)F (stereo unspecified) | 92.5 | 99 | 106 | 117 | 109 | 95.3 | 116 | 110 | 118 | 97.3 | 112 | 99.8 | 95 | 111 | 111 | 110 | 100 | 108 | 110 | 112 | 107 | 96.4 | 93.4 | 105 | 116 | 119 | 133 | 107 | 125 | 117 | 102 | 97 | 119
9 | O=C(CCCN1CCC(O)(c2ccc(Cl)cc2)CC1)c1ccc(F)cc1 | 86.5 | 93.9 | 75.6 | 106 | 113 | 94.8 | 25.8 | 43.8 | 90.2 | 102 | 98.3 | 100 | 109 | 82.6 | 101 | 113 | 117 | 20.9 | 47.2 | 117 | 110 | 89.6 | 101 | 106 | 95.5 | 110 | 123 | 120 | 30.6 | 43 | 122 | 122 | 101
10 | CC(C)[C@H]1C(=O)N[C@H](CO)Cc2c[nH]c3cccc(c23)N1C | 82.3 | 78.3 | 90.7 | 105 | 114 | 75.6 | 85.6 | 78.9 | 57.9 | 64.7 | 76.6 | 83 | 74 | 91.9 | 114 | 99.1 | 78.3 | 92.3 | 74.2 | 47.9 | 50.2 | 61.3 | 89.7 | 90.8 | 99.7 | 114 | 102 | 80.6 | 104 | 104 | 67.1 | 74.1 | 88.4
11 | COc1cccc(OC)c1-c1cc(C(=O)NC2(C(=O)O)C3CC4CC(C3)CC2C4)nn1-c1ccnc2cc(Cl)ccc12 (stereo unspecified) | 107 | 94.1 | 96.4 | 109 | 115 | 112 | 117 | 102 | 104 | 97.8 | 112 | 89.7 | 98 | 106 | 92.4 | 107 | 98.4 | 104 | 110 | 117 | 92.6 | 79.2 | 95.2 | 118 | 109 | 126 | 96.3 | 119 | 117 | 102 | 116 | 118 | 113
12 | CC(C)(C)NCC(O)c1ccc(O)c(CO)c1 (stereo unspecified) | 101 | 99.4 | 103 | 106 | 113 | 102 | 112 | 106 | 104 | 109 | 93.6 | 118 | 113 | 115 | 112 | 108 | 125 | 109 | 95.5 | 107 | 108 | 111 | 96.9 | 112 | 109 | 124 | 115 | 114 | 111 | 116 | 120 | 122 | 114
13 | CC1(C)CCC(C)(C)c2cc(NC(=O)c3ccc(C(=O)O)cc3)ccc21 | 88.1 | 107 | 98.5 | 107 | 115 | 101 | 124 | 110 | 104 | 120 | 97.4 | 100 | 93.3 | 111 | 115 | 119 | 111 | 113 | 111 | 116 | 123 | 105 | 90.9 | 92.4 | 84.7 | 95.6 | 91.9 | 93 | 103 | 94.6 | 105 | 101 | 87.7
14 | C[C@@H]1CC[C@@]2(CC[C@]3(C)\C(=C/C[C@@H]4[C@@]5(C)C[C@@H](O)[C@H](O)[C@@](C)(CO)[C@@H]5CC[C@@]34C)[C@@H]2[C@H]1C)C(O)=O | 65.5 | 75.1 | 80.4 | 86.6 | 76.5 | 90.6 | 99.1 | 91.9 | 96.5 | 110 | 115 | 114 | 110 | 107 | 120 | 115 | 106 | 128 | 127 | 110 | 120 | 7.07 | 87.9 | 93.8 | 105 | 96 | 103 | 76.4 | 66.6 | 46.1 | 229 | 158 | 127
15 | Cc1cccc(-c2[nH]c(C(C)(C)C)nc2-c2ccc3nccnc3c2)n1 | 121 | 121 | 120 | 131 | 123 | 125 | 124 | 121 | 117 | 97.7 | 11.1 | 95.9 | 85.8 | 89.7 | 95.9 | 91.2 | 81.1 | 89 | 67.9 | 82 | 64.9 | 6.89 | – | – | – | – | – | – | – | – | – | – | –
